Experimental data published in PubChem BioAssay (NCI).
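Where inhibition never reached the appropriate level, the endpoint shown equals the highest concentration tested. Otherwise, values were interpolated linearly from a five-concentration, 48-hour dose response in 96-well plates. At the GI50, growth is halved. TGI: concentration producing complete growth inhibition.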

Columns and labels:
Experiment in all cases: NCI tumour cell line growth inhibition, 48 h
MALME-3M melanoma = test system: MALME-3M melanoma
M14 melanoma = test system: M14 melanoma
SN12C renal = test system: SN12C renal
OVCAR-4 ovarian = test system: OVCAR-4 ovarian
OVCAR-3 ovarian = test system: OVCAR-3 ovarian
NCI-H522 lung = test system: NCI-H522 lung
CAKI-1 renal = test system: CAKI-1 renal
HT29 colon = test system: HT29 colon
DU-145 prostate = test system: DU-145 prostate
OVCAR-8 ovarian = test system: OVCAR-8 ovarian

Row | SMILES | TGI (MALME-3M melanoma) [nM] | TGI (M14 melanoma) [nM] | TGI (SN12C renal) [nM] | TGI (OVCAR-4 ovarian) [nM] | TGI (OVCAR-3 ovarian) [nM] | TGI (NCI-H522 lung) [nM] | TGI (CAKI-1 renal) [nM] | TGI (HT29 colon) [nM] | TGI (DU-145 prostate) [nM] | TGI (OVCAR-8 ovarian) [nM] | GI50 (MALME-3M melanoma) [nM] | GI50 (M14 melanoma) [nM] | GI50 (SN12C renal) [nM] | GI50 (OVCAR-4 ovarian) [nM] | GI50 (OVCAR-3 ovarian) [nM] | GI50 (NCI-H522 lung) [nM] | GI50 (CAKI-1 renal) [nM] | GI50 (HT29 colon) [nM] | GI50 (DU-145 prostate) [nM] | GI50 (OVCAR-8 ovarian) [nM]
1 | CC1CCC2(OC1)OC1CC3C4CC=C5CC(OC6OC(CO)C(OC7OC(C)C(OC8OC(C)C(O)C(O)C8O)C(O)C7O)C(O)C6OC6OC(C)C(O)C(O)C6O)CCC5(C)C4CCC3(C)C1C2C (stereo not given) | 1500 | 2270 | 1040 | 1330 | 3310 | 2170 | 2550 | 2200 | 2540 | 1590 |  |  |  |  |  |  |  |  |  | 
2 | COC(=O)c1c2c(c(C)[n+]([O-])c1C)C(=O)C=C(NCc1ccc(Cl)cc1)C2=O | 381 | 1680 | 1240 | 1030 | 625 | 2040 | 2180 | > 26600 | 2320 | 1440 | 157 | 202 | 309 | 229 | 208 | 508 | 109 | 271 | 1090 | 296
3 | O=C1C(NCCO)=C(N2CC2)C(=O)C(NCCO)=C1N1CC1 | > 100000 | > 100000 | 56700 | > 70800 | > 75800 | 70600 | > 100000 | > 81800 | > 100000 | > 85700 |  |  |  |  |  |  |  |  |  | 
4 | O=C(Oc1ccccc1)c1cc(O)c(O)c(O)c1 | > 100000 | 34000 | > 100000 | > 100000 | 47300 | 42500 | > 100000 | > 100000 | > 100000 | > 100000 | 21800 | 11900 | 9730 | 14000 | 4340 | 4100 | 15400 | 30000 | 15700 | 9820
